{"source": "patent US12529022B2", "about": "“Human organ-on-chip models for predictive screening” (The Trustees of Columbia University in the City of New York, priority 2018, dated 2026)", "key": {"[1]": {"tested_on": "non-metastatic (RD-ES cell line derived) Ewing sarcoma OOC", "experiment": "Non-metastatic Ewing sarcoma OOC, luciferase luminescence (cancer cell number and viability)", "type": "cell-based, human", "settings": "12 μM", "description": "Drug treatment experiments recapitulating the patient treatment regimens and the patient plasma concentration of 12 μM of linsitinib were then carried out on the nonmetastatic and metastatic TE-ES and OS models. FIGS. 42 and 43 are graphs illustrating non-metastatic (RD-ES cell line derived, FIG. 42) and metastatic (SK-N-MC cell line derived, FIG. 43) Ewing sarcoma OOCs were exposed to linsitinib (12 μM) according to the drug treatment regimen. Luminescence as a function of cancer cell number and viability was measured (mean±s.e.m., n=6 for day 3, and n=3 for day 7 and 21, biologically independent per group). Significance was determined by unpaired two-tailed Student's t test of treatment group at specific day with respective control; *P<0.05; **P<0.01; ***P<0.001. Tissue engineered bone tumor models: Using an established protocol, expanded MSCs were seeded into the bone matrix scaffolds (4 mm×4 mm×1 mm) at a concentration of 10^6 cells per scaffold, using 40 μL of medium. The cells were allowed to attach for 2 hours, and then supplemented with additional mesenchymal stem cell medium overnight. The following day, osteogenic differentiation of the seeded cells was initiated by addition of low glucose DMEM supplemented with 1 μM dexamethasone (Sigma-Aldrich), 10 mM β-glycerophosphate (SigmaAldrich), and 50 μM L-ascorbic acid-2-phosphate (Sigma Aldrich). Each scaffold was incubated in 4 mL of osteogenic media, with media changes three times a week, for 3 weeks, allowing for the MSCs to differentiate into functional, maturing osteoblasts. Two weeks following the initiation of osteogenic differentiation, aggregates of tumor cells were prepared as described previously. Briefly, 0.3×10^6 cells were used to form ES aggregates and 0.5×10^6 cells were used to form OS aggregates. After 1 week of culture, the primary bone tumor aggregates were infused into the differentiated osteoblastseeded bone scaffolds (3 aggregates per scaffold, placed apart of each other). Tumor models were established for each of the two ES cell types (non-metastatic RD-ES, metastatic SK-NMC) and three OS cell types (non-metastatic U2-OS and Saos2, metastatic KHOS/NP). TE-RD-ES were cultured in the RPMI medium, TE-U-2 OS in DMEM, TE-Saos2 in McCoy's 5A, and TESK-N-MC and TE-KHOS/NP both in EMEM. Scaffolds without aggregates were used as healthy bone controls for each tumor model (termed TE-bone) and were cultured in the respective cancer cell line medium. […] Cell viability: Cancer cell viability was measured for GFP-Luciferase labelled cancer cells using ONE-Glo luciferase substrate that was prepared according to manufacturer's protocol (Promega). […] Cardiac cell viability was assessed through the Pierce LDH Cytotoxicity Assay Kit (Thermo Fisher Scientific). […]"}, "[2]": {"settings": "patients with other types of cancers; cited from earlier work"}, "human cardiac OOC": {"tested_on": "human cardiac OOC", "experiment": "Cardiac OOC extracellular LDH cytotoxicity assay", "type": "cell-based", "settings": "after linsitinib exposure", "description": "Tissues were randomly assigned to experimental groups. Medium was changed every day. Cardiac tissues were exposed to linsitinib for 3 days.\nCell viability: Cancer cell viability was measured for GFP-Luciferase labelled cancer cells using ONE-Glo luciferase substrate that was prepared according to manufacturer's protocol (Promega). Samples were collected following 3, 7, and 21-day cycles of Linsitinib treatment. Cardiac cell viability was assessed through the Pierce LDH Cytotoxicity Assay Kit (Thermo Fisher Scientific). Samples were collected at 0 h, 1 h and 72 h."}, "TE-ES and TE-OS models": {"tested_on": "TE-ES and TE-OS models", "experiment": "Linsitinib titration on TE-ES and TE-OS bone tumor models, luminescence as cancer cell viability", "type": "cell-based, human", "settings": "21-day treatment cycle", "description": "The cells were allowed to attach for 2 hours, and then supplemented with additional mesenchymal stem cell medium overnight. The following day, osteogenic differentiation of the seeded cells was initiated by addition of low glucose DMEM supplemented with 1 μM dexamethasone (Sigma-Aldrich), 10 mM β-glycerophosphate (SigmaAldrich), and 50 μM L-ascorbic acid-2-phosphate (Sigma Aldrich). Each scaffold was incubated in 4 mL of osteogenic media, with media changes three times a week, for 3 weeks, allowing for the MSCs to differentiate into functional, maturing osteoblasts. Two weeks following the initiation of osteogenic differentiation, aggregates of tumor cells were prepared as described previously. Briefly, 0.3×10^6 cells were used to form ES aggregates and 0.5×10^6 cells were used to form OS aggregates. After 1 week of culture, the primary bone tumor aggregates were infused into the differentiated osteoblastseeded bone scaffolds (3 aggregates per scaffold, placed apart of each other). […] Cell viability: Cancer cell viability was measured for GFP-Luciferase labelled cancer cells using ONE-Glo luciferase substrate that was prepared according to manufacturer's protocol (Promega). […] Cardiac cell viability was assessed through the Pierce LDH Cytotoxicity Assay Kit (Thermo Fisher Scientific). […]"}}, "data": [{"smiles": "C[C@]1(O)C[C@@H](c2nc(-c3ccc4ccc(-c5ccccc5)nc4c3)c3c(N)nccn32)C1", "note": "[linsitinib, Linsitinib (OSI-906)]", "values": [{"measurement": "course of treated cancer cell population", "setting": "[1]; 21-day treatment cycle", "result": "stopped expanding after the treatment"}, {"measurement": "luminescence (cancer cell number and viability) vs control", "setting": "[1]; day 3", "result": "significant drug response"}, {"measurement": "luminescence (cancer cell number and viability) vs control", "setting": "[1]; day 7", "result": "significant responses"}, {"measurement": "luminescence (cancer cell number and viability) vs control", "setting": "[1]; day 21", "result": "significant responses"}, {"measurement": "cardiotoxicity in clinical trials", "setting": "[2]", "result": "proarrhythmic events, like tachycardia and atrial fibrillation"}, {"measurement": "extracellular lactate dehydrogenase (LDH)", "setting": "human cardiac OOC", "result": "increased levels"}, {"measurement": "luminescence signal as indicator of cancer cell viability", "setting": "TE-ES and TE-OS models; 12 μM, ES and OS models", "result": "significant responses"}, {"measurement": "luminescence signal as indicator of cancer cell viability, titration", "setting": "TE-ES and TE-OS models; linsitinib titration", "result": "dose response"}]}]}
